Laboratory results reported in publication PMC12202533, “Mechanistic Insights and Anti-cancer Activity of 2H-benzo[b][1,4]oxazin-3(4H)-one Linked 1,2,3-Triazoles in Human Cancer Cells” (Frontiers in Pharmacology, 2025).
Like-named read-outs stand apart in the source and are kept apart here.

How the values were obtained:
[1] = CCK-8 cell viability assay, normal cell line; format: cell-based; details: human, BEAS-2B cells (normal cell line), BEAS-2B normal cell line, read-out: Cell viability (100%), 40 μM, 48 h, BEAS-2B
Procedure: (§1) In order to investigate the anticancer activity of new synthetic 1,4-benzoxazinone-linked 1,2,3-triazole compounds, we chose several cancer cell lines, including A549 (lung), Huh7 (liver), MCF-7 (breast), HCT-116 (colon), and SKOV3 (ovary), and measured cell viability using the CCK-8 assay. Cells were exposed to 40 μM of the compounds for 48 h, and then cell viability was determined. […] In addition, we used the reference drug gefitinib as a positive control and measured its cell viability on different cell lines. […] We used BEAS-2B cells as a normal cell line to determine the toxic effects of these compounds on normal cells. […] Furthermore, we evaluated the IC50 of these compounds in A549.
(§2) Cells were cultured in DMEM or RPMI 1640 medium containing 10% FBS and 1% penicillin/streptomycin at 37°C and 5% CO2. The CCK-8 assay was performed on several human cancer cell lines, including A549, Huh7, MCF-7, HCT-116, and SKOV3, according to the manufacturer’s instructions. Cells were plated at a density of 5 × 10^3 cells per well in a 96-well plate. After 24 h of incubation, cells were treated with 40 μM compounds for 48 h. Cell viability was assessed by adding 10 μL of CCK-8 reagent, dissolved in the cell culture medium, and incubating for 1 h. Absorbance was measured at 450 nm using a microplate reader. IC50 values were determined using a dose-response curve with six concentrations (0, 10, 20, 40, 80, and 160 μM), and IC50 values were calculated using GraphPad Prism software.

MCF-7 = assay: CCK-8 cell viability assay; format: cell-based; details: Homo sapiens, MCF7, MCF-7, 40 μM, 48 h, read-out: Cell viability (100%), 40 μM, 48 h, MCF-7
Procedure: as §1
(§3) Human cancer cell lines A549, Huh7, MCF-7, HCT-116, and SKOV3 were obtained from ATCC. The cells were cultured in DMEM or RPMI 1640 medium supplemented with 10% FBS and 1% penicillin/streptomycin and incubated at 37°C in a CO2-humidified atmosphere.
as §2

HCT-116 = assay: CCK-8 cell viability assay; format: cell-based; details: Homo sapiens, HCT-116, 40 μM, 48 h, read-out: Cell viability (100%), 40 μM, 48 h, HCT-116
Procedure: as §1, §3, §2

SKOV3 = assay: CCK-8 cell viability assay; format: cell-based; details: Homo sapiens, SK-OV-3, SKOV3, 40 μM, 48 h, read-out: Cell viability (100%), 40 μM, 48 h, SKOV3
Procedure: as §1, §3, §2

Huh7 = assay: CCK-8 cell viability assay; format: cell-based; details: Homo sapiens, Huh-7, Huh7, 40 μM, 48 h, read-out: Cell viability (100%), 40 μM, 48 h, Huh7
Procedure: as §1, §3, §2

A549 [2] = assay: CCK-8 cell viability assay and IC50 measurement; format: cell-based, human; details: for viability at 40 µM: CCK-8, read-out: Cell viability (100%), 40 μM, 48 h, A549
Procedure: as §1, §3, §2

A549 cells [3] = system: A549 cells; design: method as in Bollu et al., 2017; details: ref Bollu et al., 2017; cited from earlier work
A549 lung cancer cell = system: A549 lung cancer cell; design: method as in Zhou et al. (2014); details: by inducing autophagy and cell cycle arrest; ref Zhou et al. (2014); cited from earlier work
MV4-11 = system: MV4-11; design: method as in Rajitha et al., 2011; details: ref Rajitha et al., 2011; cited from earlier work
DLD-1 = system: DLD-1; design: method as in Rajitha et al., 2011; details: ref Rajitha et al., 2011; cited from earlier work
A549 [4] = system: A549; design: method as in Rajitha et al., 2011; details: ref Rajitha et al., 2011; cited from earlier work
PI3Kα = system: PI3Kα; design: method as in Yan et al., 2019; details: ref Yan et al., 2019; read-out: IC50 against PI3Kα; cited from earlier work
[5] = design: method as in Yan et al., 2019; details: mice; ref Yan et al., 2019; cited from earlier work
HeLa = system: HeLa; design: method as in Yan et al., 2019; details: ref Yan et al., 2019; cited from earlier work
A549 cells [6] = system: A549 cells; design: method as in Yan et al., 2019; details: ref Yan et al., 2019; cited from earlier work
HepG2 cells = system: HepG2 cells; design: method as in Xie et al., 2023; details: ref Xie et al., 2023, cited from earlier work
topoisomerase I = system: topoisomerase I; design: method as in El Hamaky et al., 2024; details: ref El Hamaky et al., 2024; cited from earlier work
topoisomerase II [7] = system: topoisomerase II; design: method as in El Hamaky et al., 2024; details: ref El Hamaky et al., 2024; cited from earlier work
tubulin polymerization = system: tubulin polymerization; design: method as in El Hamaky et al., 2024; details: ref El Hamaky et al., 2024; cited from earlier work
HCT116 cells [8] = system: HCT116 cells; design: method as in El Hamaky et al., 2024; details: ref El Hamaky et al., 2024, cited from earlier work
HeLa cells = system: HeLa cells; design: method as in Srinivas Reddy et al., 2022; details: ref Srinivas Reddy et al., 2022; cited from earlier work
HCT116 cells [9] = system: HCT116 cells; design: method as in Mohammed et al., 2022; details: MTT assay; ref Mohammed et al., 2022; cited from earlier work
topoisomerase II [10] = molecular target: topoisomerase II; design: method as in Mohammed et al., 2022; details: ref Mohammed et al., 2022; cited from earlier work
[11] = Homo sapiens, A549, 40 μM, 48 h

O=C1COc2ccc(NC(=O)c3cccc(-c4cn(-c5cc(Cl)ccc5F)nn4)c3)cc2N1 [Compound 14g]
viability at 48 h, 40 µM [1]: 103 ± 4.98% | viability at 40 µM (MCF-7): 45.5 ± 0.99% | viability at 40 µM (HCT-116): 74.8 ± 1.72% | viability at 40 µM (SKOV3): 87.6 ± 1.3% | viability at 40 µM (Huh7): 75.3 ± 1.09% | viability at 40 µM (A549 [2]; [11]): 28.2 ± 0.55% | inhibition at 40 µM (A549 [2]; Homo sapiens, A549, 40 μM, 48 h, read-out: inhibition rate): > 50%

COc1cc2ncnc(Nc3ccc(F)c(Cl)c3)c2cc1OCCCN1CCOCC1 [Gefitinib, reference compound]
viability at 48 h, 40 µM [1]: 82.11 ± 0.74% | viability at 40 µM (MCF-7): 63.73 ± 0.62% | viability at 40 µM (HCT-116): 75.2 ± 1.66% | viability at 40 µM (SKOV3): 84.25 ± 0.32% | viability at 40 µM (Huh7): 55 ± 0.76% | activity on A549 cells (in words) (A549 [2]; A549, CCK-8): effective activity on A549 cells | viability at 40 µM (A549 [2]; [11]): 31.1 ± 0.73%

COc1ccc(-c2nc3ccccc3c(=O)n2C/C=C/c2ccc(C(=O)CN3C(=O)COc4ccccc43)cc2)c(OC)c1OC [compound 3]
GI50 (A549 cells [3]): 0.32 µM

COc1cc(/C=C/C(=O)c2ccc3c(c2)NC(=O)CO3)cc(OC)c1 [compound 4]
A549 lung cancer cell growth (A549 lung cancer cell): effectively suppressed

O=C1COc2ccc(-c3[nH]c(-c4ccc(C(F)(F)F)cc4)nc3-c3ccccc3)cc2N1 [compound 5]
viability of MV4-11 cells (MV4-11): significantly reduced | viability of DLD-1 cells (DLD-1): significantly reduced | viability of A549 cells (A549 [4]): significantly reduced

COc1ccc(N2C(=O)COc3ccc(-c4cnc(OC)c(NS(=O)(=O)c5ccc(F)cc5)c4)cc32)cc1 [compound 6]
IC50 (PI3Kα): 0.00063 µM | oral bioavailability [5]: good | IC50 (HeLa): 1.35 µM | IC50 (A549 cells [6]): 1.22 µM

COc1c2n(cc(C(=O)Nc3cccc(-c4cn(-c5c(C)cc(C)cc5C)nn4)c3)c1=O)C[C@H]1OC[C@H](C)N1C2=O [compound 7]
apoptosis, G2/M phase arrest, and DNA damage (HepG2 cells; concentration-dependent): induced | IC50 (HepG2 cells): 4.07 ± 0.09 µM

Cc1ccc(NC(=O)Cn2cc(CSc3nc4ccccc4c(=O)n3-c3ccccc3)nn2)cc1 [compound 8]
topoisomerase I inhibition (topoisomerase I): significantly inhibited | topoisomerase II inhibition (topoisomerase II [7]): significantly inhibited | tubulin polymerization inhibition (tubulin polymerization): significantly inhibited | γ-H2AX protein expression (HCT116 cells [8]; HCT116): upregulated | IC50 (HCT116 cells [8]): 4.87 ± 0.78 µM

N#Cc1ccc(-n2nnc3c2-c2cc(Cl)c4cccnc4c2OC3)cc1 [compound 9]
IC50 (HeLa cells): 3.38 ± 1.14 µM

COc1ccc(/C=C/C(=O)c2ccc(-n3cc(CN4CCN(c5cc6c(cc5F)c(=O)c(C(=O)O)cn6C5CC5)CC4)nn3)cc2)cc1OC [compound 10]
IC50 (HCT116 cells [9]): 10.6 ± 0.8 µM | IC50 (topoisomerase II [10]): 19.7 ± 0.79 µM
